Source: US12172959B2, “Mono- or di-substituted indole derivatives as dengue viral replication inhibitors” (priority 2015, dated 2024)
pEC50: −log10 of the molar value.

Columns and labels:
[1] = test system: Vero cells; settings: African green monkey
[2] = test system: DENV-1 strain Djibouti strain (D1/H/IMTSSA/98/606); experiment: Tetravalent RT-qPCR assay Protocol B, serotype 1; assay type: cell-based; settings: Dengue virus, DENV1, 168 h, RT-qPCR serotype 1 Djibouti, 7 days
Method: The antiviral activity of the compounds of the invention was tested against DENV-1 strain Djibouti strain (D1/H/IMTSSA/98/606; Table 6), DENV-2 strain NGC (Table 7), DENV-3 strain H87 (Table 8) and DENV-4 strain SG/06K2270DK1/2005 (Table 9B) in a RT-qPCR assay. Vero-B or Vero-M cells (5×10^4) were seeded in 96-well plates. One day later, culture medium was replaced with 100 μL assay medium containing a 2×, 3× or 5× serial dilution of the compound (concentration range: 50 μg/mL-0.00038 μg/mL, 50 μg/mL-0.0076 μg/mL, and 50 μg/mL-0.00013 μg/mL, respectively) and 100 μL of dengue virus inoculum (DENV). Following a 2 hour incubation period, the cell monolayer was washed 3 times with assay medium to remove residual, non-adsorbed virus and cultures were further incubated for either 4 days (DENV-2 NGC) or 7 days (DENV-1 Djibouti strain D1/H/IMTSSA/98/606, DENV-3 strain H87 prototype, DENV-4 strain H241, and DENV-4 strain EDEN) in the presence of the inhibitor. Supernatant was harvested and viral RNA load was determined by real-time quantitative RT-PCR. The 50% effective concentration (EC50), which is defined as the compound concentration that is required to inhibit viral RNA replication by 50%, was determined using logarithmic interpolation.
RNA was isolated from 100 μL (or in some circumstances 150 μL) supernatant with the NucleoSpin 96 Virus kit (Filter Service, Duren, Germany) as described by the manufacturer. The sequences of the TaqMan primers (DENV-For, DENV-Rev; Table 5) and TaqMan probes (DENV-Probe Table 5) were selected from non-structural gene 3 (NS3) or NS5, of the respective flaviviruses using Primer Express software (version 2.0; Applied Biosystems, Lennik, Belgium). The TaqMan probe was fluorescently labelled with 6-carboxyfluorescein (FAM) at the 5′ end as the reporter dye, and with minor groove binder (MGB) at the 3′ end as the quencher (Table 5). One-step, quantitative RT-PCR was performed in a total volume of 25 μL, containing 13.9375 μL H2O, 6.25 μL master mix (Eurogentec, Seraing, Belgium), 0.375 μL forward primer, 0.375 μL reverse primer, 1 μL probe, 0.0625 μL reverse transcriptase (Eurogentec) and 3 μL sample. RT-PCR was performed using the ABI 7500 Fast Real-Time PCR System (Applied Biosystems, Branchburg, New Jersey, USA) using the following conditions: 30 min at 48° C. and 10 min at 95° C., followed by 40 cycles of 15 s at 95° C. and 1 min at 60° C. The data was analyzed using the ABI PRISM 7500 SDS software (version 1.3.1; Applied Biosystems). For absolute quantification, standard curves were generated using 10-fold dilutions of template preparations of known concentrations.

[3] = in vitro; assay type: cell-based; settings: African green monkey, CC50
Method in brief: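 Vero cells (10000/well) in MEM with 2% FCS were preincubated overnight with compound, then infected with DENV-1, -2, -3 or -4 (dose set to Cp ~22-24) and cultured 3 days at 37 °C. Duplex RT-qPCR measured viral 3′UTR against β-actin. EC50 by ΔΔCp; CC50 also derived.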

[4] = test system: DENV-1 strain TC974#666; experiment: Tetravalent RT-qPCR assay Protocol A, serotype 1; assay type: cell-based; settings: Dengue virus, DENV1, 72 h, RT-qPCR serotype 1 TC974#666, Vero cells, day 3
Method in brief: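 Vero cells in MEM with 2% FCS were infected with DENV in the presence of compound and incubated for 3 days at 37° C. Lysates underwent RT and duplex qPCR for the viral 3′UTR and β-actin. EC50 came from ΔΔCp normalized to β-actin, and CC50 from the β-actin signal.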

[5] = test system: DENV-4 strain SG/06K2270DK1/2005 (Eden); experiment: Tetravalent RT-qPCR assay Protocol A, serotype 4 EDEN; assay type: cell-based; settings: Dengue virus, DENV4, Vero, 72 h
Method: The antiviral activity of the compounds of the invention was tested against DENV-1 strain TC974#666 (NCPV; Table 6), DENV-2 strain 16681 (Table 7), DENV-3 strain H87 (NCPV; Table 8) and DENV-4 strains H241 (NCPV; Table 9A) and SG/06K2270DK1/2005 (Eden; Table 9B) in a RT-qPCR assay. Therefore, Vero cells were infected with either DENV-1, or -2, or -3, or -4 in the presence or absence of test compounds. At day 3 post-infection, the cells were lysed and cell lysates were used to prepare cDNA of both a viral target (the 3′UTR of DENV; Table 2) and a cellular reference gene (β-actin, Table 2). Subsequently, a duplex real time PCR was performed on a Lightcycler480 instrument. The generated Cp value is inversely proportional to the amount of RNA expression of these targets. Inhibition of DENV replication by test compound results in a shift of Cp's for the 3′UTR gene. On the other hand, if a test compound is toxic to the cells, a similar effect on β-actin expression will be observed. The comparative ΔΔCp method is used to calculate EC50, which is based on the relative gene expression of the target gene (3′UTR) normalized with the cellular housekeeping gene (β-actin).
The culture medium consisted of minimal essential medium supplemented with 2% of heat-inactivated fetal calf serum, 0.04% gentamycin (50 mg/mL) and 2 mM of L-glutamine. Vero cells, obtained from ECACC, were suspended in culture medium and 75 μL/well was added in 96-well plates (10000 cells/well), which already contain the antiviral compounds. […] In addition, each plate contains wells which are assigned as virus controls (containing cells and virus in the absence of compound) and cell controls (containing cells in the absence of virus and compound). Once the cells were added in the plates, the plates were incubated in a fully humidified incubator (37° C., 5% CO2) until the next day. Dengue viruses serotype-1, 2, 3 and 4 were diluted in order to obtain a Cp of ˜22-24 in the assay. Therefore, 25 μL of virus suspension was added to all the wells containing test compound and to the wells assigned as virus control. In parallel, 25 μL of culture medium was added to the cell controls. Next, the plates were incubated for 3 days in a fully humidified incubator (37° C., 5% CO2). After 3 days, the supernatant was removed from the wells and the cells were washed twice with ice-cold PBS (˜100 μL). The cell pellets within the 96-well plates were stored at −80° C. for at least 1 day. Next, RNA was extracted using the Cells-to-CT™ lysis kit, according to the manufacturer's guideline (Life Technologies). The cell lysates can be stored at −80° C. or immediately used in the reverse transcription step.
In preparation of the reverse transcription step, mix A (table 3A) was prepared and 7.57 μL/well was dispensed in a 96-well plate. After addition of 5 μL of the cell lysates, a five minute denaturation step at 75° C. was performed (table 3B). Afterwards, 7.43 μL of mix B was added (table 3C) and the reverse transcription step was initiated (table 3D) to generate cDNA.
Finally, a RT-qPCR mix was prepared, mix C (table 4A), and 22.02 μL/well was dispensed in 96-well LightCycler qPCR plates to which 3 μL of cDNA was added and the qPCR was performed according to the conditions in table 4B on a LightCycler 480.
Using the LightCycler software and an in-house LIMS system, dose response curves for each compound were calculated and the half maximal effective concentration (EC50) and the half maximal cytotoxic concentration (CC50) were determined.

Row | Compound | CC50 [1] | pEC50 [2] | CC50 at 3 days [3] | pEC50 [4] | pEC50 [5]
1 | COc1cc(NC(C(=O)c2c[nH]c3c(C)c(OC)ccc23)c2ccc(Cl)cc2OC)cc(S(C)(=O)=O)c1 (single isomer, unassigned) [Compound 6A, 2-(4-chloro-2-methoxyphenyl)-2-((3-methoxy-5-(methyl-sulfonyl)phenyl)amino)-1-(6-methoxy-7-methyl-1H-indol-3-yl)ethanone] | > 25000 nM | > 7.85 | > 10000 nM | 8.80 | 9.38
2 | COc1cc(NC(C(=O)c2c[nH]c3c(C)c(F)ccc23)c2ccc(Cl)cc2OC)cc(S(C)(=O)=O)c1 (single isomer, unassigned) [Compound 2A, 2-(4-chloro-2-methoxyphenyl)-1-(6-fluoro-7-methyl-1H-indol-3-yl)-2-((3-methoxy-5-(methylsulfonyl)phenyl)amino)ethanone] | 4800 nM | > 7.85 | 5300 nM | 8.62 | 8.89
3 | COc1cc(NC(C(=O)c2c[nH]c3cc(OC)c(F)cc23)c2ccc(Cl)cc2OC)cc(S(C)(=O)=O)c1 (single isomer, unassigned) [Compound 5A, 2-(4-chloro-2-methoxyphenyl)-1-(5-fluoro-6-methoxy-1H-indol-3-yl)-2-((3-methoxy-5-(methylsulfonyl)phenyl)amino)ethanone] | 5000 nM | > 7.85 | 5200 nM | 8.44 | 8.54
4 | COc1cc(NC(C(=O)c2c[nH]c3cc(OC)c(C)cc23)c2ccc(Cl)cc2OC)cc(S(C)(=O)=O)c1 (single isomer, unassigned) [Compound 4A, 2-(4-chloro-2-methoxyphenyl)-2-((3-methoxy-5-(methyl-sulfonyl)phenyl)amino)-1-(6-methoxy-5-methyl-1H-indol-3-yl)ethanone] | 4200 nM | > 7.85 | – | 9.01 | 9.26
5 | COc1cc(NC(C(=O)c2c[nH]c3cc(F)ccc23)c2ccc(Cl)cc2OC)cc(S(C)(=O)=O)c1 (single isomer, unassigned) [Compound 1A, 2-(4-chloro-2-methoxyphenyl)-1-(6-fluoro-1H-indol-3-yl)-2-((3-methoxy-5-(methylsulfonyl)phenyl)amino)ethanone] | 4300 nM | > 7.82 | 5000 nM | 8.60 | 8.62
